Test results reported in paper PMC10053369, “Recombinant Analogs of Sea Anemone Kunitz-Type Peptides Influence P2X7 Receptor Activity in Neuro-2a Cells” (Marine Drugs, 2023).
Positions of bridges follow the written chain, without caps; N, C: chain ends. No end group written: not given here.

What was measured:
Neuro-2a cells = assay: Cytoprotection against ATP-induced cell death (MTT assay); format: cell-based, mouse; conditions: long-time application of ATP (4 mM, 48 h)
Method: Neuro-2a neuroblastoma cells (ATCC® CCL-131™) were obtained from American Type Culture Collection (Manassas, VA, USA). The cells were cultivated in DMEM medium (BioloT, St. Petersburg, Russia) supplemented with 10% of fetal bovine serum (BioloT, St. Petersburg, Russia) and 1% penicillin/streptomycin (BioloT, St. Petersburg, Russia) at 37 °C and 5% CO2. Initially, cells were incubated in cultural flasks until sub-confluent (~80%). For testing, Neuro-2a cells were seeded in 96-well plates and experiments were started after 24 h.
The cytoprotective effect of peptides was assessed in Neuro-2a cells using the MTT assay. In brief, an aliquot (180μL) of cell suspension with a nominal cell density of 3 × 10^4 cells/well was dispensed into 96-well plates. The cells were incubated for 24 h in a humidified atmosphere containing 5% CO2 to allow cell attachment. At the end of the preincubation period, ATP (Sigma-Aldrich, St. Louis, MO, USA) was added to the cells at a concentration of 4 mM. Studied peptides were added to the cells at concentrations of 0.1, 1.0 or 10.0 μM for 1h prior to the addition of ATP. After incubation for 48 h at 37 °C cell viability was detected using the MTT as described previously. The standard P2X7 inhibitor, A438079 (Sigma-Aldrich, St. Louis, MO, USA), at a concentration of 10 μM was used as a positive control.
All data were obtained in three independent replicates and calculated values were expressed as mean ± standard error of the mean (SEM). The Student’s t-test was performed using SigmaPlot 14.0 (Systat Software Inc., San Jose, CA, USA) to determine statistical significance.

P2X7 in Neuro-2a cells = assay: P2X7 immunofluorescence / expression (confocal microscopy); format: cell-based, mouse; conditions: 10 μM peptide, 24 h
Method: Neuro-2a cells on coverslips were washed once with PBS, fixed with cold 100% methanol for 5 min in an ice bath, and then washed (3 × 5 min) with PBS. For P2X7 receptor immunocytochemistry, cells were blocked with 10% bovine serum in PBS containing 0.1% Triton X-100 (1 h) and incubated with specific to P2X7 primary antibodies (1:1000; orb35965 Biorbyt Ltd., Cambridge, UK) overnight at 4 °C. Cells were washed with PBS (3 × 10 min) and incubated with Alexa Fluor 594-conjugated goat anti-rabbit secondary antibodies (1:200, Abcam plc, Cambridge, UK) for 2 h at room temperature. Cells were washed in PBS (3 × 10 min) before mounting. In control experiments, the primary antibody was omitted, and immunostaining was never observed. Neuro-2a cell fluorescence was studied using an LSM 710 META confocal laser scanning microscope (Carl Zeiss, Göttingen, Germany) equipped with an Ar laser with an effective power of 30 mW. The obtained images were analyzed using the ZEN 2.3 (blue edition) software (Carl Zeiss, Göttingen, Germany).

RGICSEPKVVGPCKAGLRRFYYDSETGECKPFIYGGCKGNKNNFETLHACRGICRA (disulfide 4-54, 13-37, 29-50 (inferred)) [HCRG1]
protection from ATP-induced death (Neuro-2a cells): partially protected neuroblastoma cells from ATP-induced death | amount of P2X7 in Neuro-2a cells (P2X7 in Neuro-2a cells): significantly reduced the amount of P2X7 in Neuro-2a cells | decrease in P2X7 fluorescence (P2X7 in Neuro-2a cells; mean ± SE, n = 3, p < 0.05): 24.1 ± 3.2%
